Laboratory results: the supplement of paper PMC10307832

Compound: CC(C)=CC[C@@H](O)C1=CC(=O)c2c(O)ccc(O)c2C1=O [Shikonin] + NC(=O)Nc1cc(-c2cccc(F)c2)sc1C(=O)N[C@H]1CCCNC1 [AZD7762] (partner 0.2 µM)
Test: relative viability (nuclei count vs DMSO), 5 days (fraction); higher = more cells survive
Conditions: first compound 0.01 µM
In short: (§1)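 Lung cancer cell lines, seeded in 1536-well plates, were treated the following day by pin tool with a single drug or with five library-drug doses (not always all listed) in √10 steps on top of a fixed anchor-drug dose. Cells were fixed and nuclei stained in one step after 5 days, and nuclei were counted. Relative viability is the nuclei count for treated wells divided by that for vehicle wells, reported as medians of duplicate plates.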

Row | Cell Line | relative viability
1 | LC-2-ad | 0.756
2 | NCI-H1944 | 0.454
3 | NCI-H1975 | 0.746
4 | NCI-H358 | 0.425
5 | NCI-H727 | 0.682

Same assay, conditions: first compound 0.1 µM

Row | Cell Line | relative viability
6 | NCI-H1793 | 0.531
7 | RERF-LC-KJ | 0.788
8 | EKVX | 0.698
9 | LC-2-ad | 0.919
10 | NCI-H1944 | 0.558
11 | NCI-H1975 | 0.683
12 | ABC-1 | 1.13
13 | NCI-H358 | 0.62
14 | NCI-H727 | 0.584

Same assay, conditions: first compound 0.3162 µM

Row | Cell Line | relative viability
15 | NCI-H1793 | 0.494
16 | RERF-LC-KJ | 1.26
17 | EKVX | 0.851
18 | LC-2-ad | 0.863
19 | NCI-H1944 | 0.763
20 | NCI-H1975 | 0.808
21 | ABC-1 | 0.644
22 | NCI-H358 | 0.607
23 | NCI-H727 | 0.732

Same assay, conditions: first compound 1 µM

Row | Cell Line | relative viability
24 | NCI-H1793 | 0.629
25 | RERF-LC-KJ | 1.02
26 | EKVX | 0.703
27 | LC-2-ad | 0.949
28 | NCI-H1944 | 0.561
29 | NCI-H1975 | 0.8
30 | ABC-1 | 0.741
31 | NCI-H358 | 0.603
32 | NCI-H727 | 0.647

Compound: CC(C)N(CCCNC(=O)Nc1ccc(C(C)(C)C)cc1)C[C@H]1O[C@@H](n2ccc3c(N)ncnc32)[C@H](O)[C@@H]1O + Cc1nc(NC(=O)N2CCC[C@H]2C(N)=O)sc1-c1ccnc(C(C)(C)C(F)(F)F)c1 [Alpelisib] (partner 2 µM)
Test: as above
Conditions: first compound 0.08 µM
In short: as §1

Row | Cell Line | relative viability
33 | NCI-H1793 | 0.554
34 | RERF-LC-KJ | 0.826
35 | EKVX | 0.908
36 | LC-2-ad | 0.802
37 | NCI-H1944 | 0.769
38 | NCI-H1975 | 0.555
39 | ABC-1 | 0.989
40 | NCI-H358 | 0.78
41 | NCI-H727 | 0.448

Same assay, conditions: first compound 0.253 µM

Row | Cell Line | relative viability
42 | RERF-LC-KJ | 0.757
43 | EKVX | 0.883
44 | LC-2-ad | 0.83
45 | NCI-H1944 | 0.806
46 | NCI-H1975 | 0.529
47 | ABC-1 | 1.2
48 | NCI-H358 | 0.823
49 | NCI-H727 | 0.511

Same assay, conditions: first compound 0.8 µM

Row | Cell Line | relative viability
50 | NCI-H1793 | 0.715
51 | RERF-LC-KJ | 0.868
52 | EKVX | 0.827
53 | LC-2-ad | 0.992
54 | NCI-H1944 | 0.774
55 | NCI-H1975 | 0.586
56 | NCI-H358 | 0.901
57 | NCI-H727 | 0.612

Same assay, conditions: first compound 2.53 µM

Row | Cell Line | relative viability
58 | NCI-H1793 | 0.527
59 | RERF-LC-KJ | 0.838
60 | EKVX | 0.855
61 | LC-2-ad | 0.823
62 | NCI-H1944 | 0.852
63 | NCI-H1975 | 0.611
64 | ABC-1 | 1.12
65 | NCI-H358 | 0.87
66 | NCI-H727 | 0.547

Same assay, conditions: first compound 8 µM

Row | Cell Line | relative viability
67 | NCI-H1793 | 0.669
68 | RERF-LC-KJ | 0.815
69 | EKVX | 0.676
70 | LC-2-ad | 0.806
71 | NCI-H1944 | 0.82
72 | NCI-H1975 | 0.567
73 | ABC-1 | 1.07
74 | NCI-H358 | 0.917
75 | NCI-H727 | 0.673
